Data taken from patent publication US20250057911A1, “OVARY-TARGETING POLYPEPTIDE, AND DERIVATIVE AND THE USE THEREOF” (SHENZHEN INSTITUTES OF ADVANCEDTECHNOLOGY CHINESE ACADEMY …, priority 2022, published 2025).
Ends that are not written are not given here.

How the values were obtained:
[1] = tested on: ovary; test: Mouse ovary-targeting capacity of polypeptide ICG probe (small animal imaging); format: in vivo; conditions: adult mice, tail vein injection 100 μL/mouse, imaged after 24 h; FIG. 1
Description: A solution of the polypeptide ICG probe (containing SEQ ID NO: 1) prepared in Example 2, an ICG solution (2 mM), and PBS were injected intravenously into the tail of the adult mice at 100 μL/mouse. After 24 h, the mice were detected under an imager for small animals.

[2] = tested on: ovary; test: Mouse ovary-targeting capacity of polypeptide AIE probe (small animal imaging); format: in vivo; conditions: adult mice, tail vein injection 100 μL/mouse, imaged after 24 h; FIG. 2
Description: The polypeptide AIE probe (containing SEQ ID NO: 1) prepared in Example 2, a scrambled polypeptide AIE probe, an AIE empty particle, and PBS were injected intravenously into the tail of the adult mice at 100 μL/mouse. After 24 h, the mice were detected under an imager for small animals.

[3] = tested on: mouse ovary; test: Localization of polypeptide targeting in mouse ovary (cryosection, laser confocal microscope); format: in vivo; conditions: ovaries from Example 4, 10 μm cryosections, DAPI; FIG. 3
From the text: To further confirm the localization for the targeting of the polypeptide to the ovary, the four groups of mouse ovaries from Example 4 were fixed with 4% PFA, then cryosectioned (10 μm), stained for cell nuclei (DAPI), and observed for fluorescence localization under a laser confocal microscope.

[4] = tested on: DHT model mice liver; test: Hyperandrogen-induced mouse liver lipid droplet accumulation (HE staining); format: in vivo; conditions: DHT+OCN15 treated group vs DHT model mice; FIG. 9
Description: (§1) Wild type female mice at postnatal day 25 (D25) were randomly grouped into a control group (CTRL), a DHT group, and a DHT+OCN15 ([…] is the polypeptide set forth in SEQ ID NO: 1) group, with at least 8 mice in each group. The control group was implanted subcutaneously with an empty pump and gavaged with 200 μL of normal saline every day; the DHT group was implanted subcutaneously with a slow-release pump containing 5 mg of dihydrotestosterone (DHT) powder and gavaged with 200 μL of normal saline every day; and the DHT+OCN15 group was implanted subcutaneously with a slow-release pump containing 5 mg of DHT powder and gavaged with 200 μl of normal saline containing the polypeptide (500 μg/Kg) every day. The modeling time was 60 days.
The method for the induction of the mouse PCOS model by hyperandrogen DHT is described in Example 6. After modeling, the mouse liver was taken, fixed overnight by 4% paraformaldehyde (PFA), dehydrated by alcohol gradient, embedded by paraffin, sectioned (5 μm), and subjected to HE staining for morphological observation.

[5] = tested on: oocytes; test: Oocyte post-ovulation aging model (in vitro aging in M16 medium); format: cell-based, mouse
Description: Wild type female mice were intraperitoneally injected with 5 IU PMSG (pregnant mare serum gonadotropin), followed by an intraperitoneal injection of 5 IU hCG (human chorionic gonadotropin) 48 h later for superovulation. Oocytes were collected after 14 h, and cumulus cells were removed using hyaluronidase. Then, the oocytes were randomly divided into the Aging group and the Aging+OCN15 group and cultured in M16 medium for aging. The Control group was aged for 0 h, the Aging group for 12 h, and the Aging+OCN15 group in M16 containing the polypeptide (1 μg/mL) for 12 h.

[6] = tested on: DHT-induced hyperandrogenic female mice; test: Hyperandrogen dihydrotestosterone (DHT)-induced mouse model, reproductive and metabolic symptoms; format: in vivo
Description: as §1

## OCN15-ICG: ICG probe containing SEQ ID NO: 1, polypeptide linked to ICG by click chemistry (DBCO linker) (YLGASVPSPDPLEPT; also: ICG dye attached via DBCO click linker, site not given here)
[1]
  fluorescent signal at the ovarian site: has a specific signal at the ovarian site

## CC1(C)C(/C=C/C=C/C=C/C=C2\N(CCCCS(=O)(=O)[O-])c3ccc4ccccc4c3C2(C)C)=[N+](CCCCS(=O)(=O)[O-])c2ccc3ccccc3c21.[Na+] [ICG, reference compound]
[1]
  fluorescent signal at the ovarian site: do not show a fluorescent signal at the ovarian site

## OCN15-AIE: AIE probe containing SEQ ID NO: 1, polypeptide linked to AIE by click chemistry (DBCO linker) (YLGASVPSPDPLEPT; also: AIE probe attached via DBCO click linker, site not given here)
[2]
  fluorescent signal at the ovarian site: has a specific signal at the ovarian site
[3]
  fluorescence localization in the ovary: mainly targets the interstitial cell and the membrane cell in the mouse ovary

## YLGASVPSPDPLEPT [OCN15, mouse metabolite, ovary-targeting polypeptide]
[4]
  liver lipid droplet accumulation: alleviated
[5]; 1 μg/mL polypeptide in M16, 12 h aging, FIG. 7A
  oocyte fragmentation and degeneration: ameliorate the fragmentation and degeneration caused by in vitro aging of oocytes
[5]; 1 μg/mL polypeptide in M16, 12 h aging, FIG. 7B
  zona pellucida sclerosis: ameliorate the zona pellucida sclerosis caused by in vitro aging of oocytes
[5]; 1 μg/mL polypeptide in M16, 12 h in vitro aging, FIG. 7C
  in vitro fertilization rate: improve the low fertilization rate caused by in vitro aging of oocytes
[6]; 500 μg/Kg gavage daily with DHT pump, 60 days after modeling, FIG. 4C
  anogenital distance: significantly improved
[6]; 500 μg/Kg gavage daily with DHT pump, 60 days modeling, normal above 4 days, hyperandrogenic around 2 days, FIG. 4B
  number of estrous days in ten days: ~3 days
[6]; 500 μg/Kg gavage daily with DHT pump, 60 days, FIG. 4A
  ovarian polycystic changes: reduce the polycystic changes
[6]; 500 μg/Kg gavage daily with DHT pump, FIG. 5A
  body weight: alleviate the increase in body weight
[6]; 500 μg/Kg gavage daily with DHT pump, FIG. 5B
  body weight gain: alleviate the increase in body weight and body weight gain caused by DHT to some extent
[6]; 500 μg/Kg gavage daily with DHT pump, FIG. 5C
  weight of gonadal fat: reducing the weight of mouse gonadal fat
[6]; 500 μg/Kg gavage daily with DHT pump, FIG. 5D
  lean body mass: increased lean body mass
[6]; at 30 min after oral glucose, 60 days after modeling, FIG. 4D
  blood glucose level after oral administration of glucose: significant decrease in blood glucose level compared with the group with DHT alone
[6]; day 60 of modeling, immunofluorescence, FIG. 6B
  androgen receptor AR expression in the epidermal layer of the neck and back skin: significantly reduce DHT-caused significant increase of androgen receptor AR expression
[6]; day 60 of modeling, FIG. 6A
  hair loss on the neck and back skin: can significantly improve the phenomenon
